From publication PMC6002064, “Validated UPLC-MS/MS method for the quantification of dasatinib in plasma: Application to pharmacokinetic interaction studies with nutraceuticals in Wistar rats” (PLoS ONE, 2018)
One block for each compound: values may come before it.

How the values were obtained:
[1] = Pharmacokinetic interaction study of oral DAS with nutraceuticals in acetic acid-induced UC Wistar rats (UPLC-MS/MS of plasma); type: in vivo; settings: DAS 25 mg/kg oral
Method: Calibration standards, QC samples, as well as blank plasma samples were centrifugated at 6000 rpm for 5 min. Following the separation of the methanolic supernatants, the residues of individual samples were separately washed with 0.5 mL volumes of methanol. The combined supernatant and washing of each sample were cleaned-up by passing onto STRATA® C 18-E (200 mg, 3 mL) SPE cartridges, previously preconditioned with 3.0 mL methanol followed by 3.0 mL ultrapure water. The retained drugs were eluted from each sample using separate volumes of 0.5 mL methanol. Following the evaporation of the eluted methanolic solutions to dryness under nitrogen, the residue was reconstituted in 0.5 mL acetonitrile. Finally, UPLC–MS/MS analysis of the reconstituted samples was performed by injecting 5 μL volumes of each sample under the operating conditions.
Wistar healthy male rats weighing 250 ± 30 g were provided by the animal house, Women Student-Medical studies & Sciences Sections, College of Pharmacy, King Saud University, Riyadh, Saudi Arabia. The rats were placed in cages kept in a well-ventilated room and subjected to a regular 12 h day–night cycle at a relative humidity of 40–60% and average temperature of 24–27°C. All the rats could access the water freely while diet was prohibited for 12 h before drug administration. The rats were acclimatized for 7 days to laboratory conditions before conducting the experiment. Seven groups of five rats each were involved in the study. For all rats, UC was induced by oral daily administration of 1 mL volumes of 5% glacial acetic acid in water for three successive days. DAS suspension was prepared by triturating 125 mg of DAS with 5 mL aqueous methyl cellulose (0.5%, w/v) to prepare DAS suspension of 25 mg/mL, given to all groups with the exception of group V where olive oil was used for the suspension preparation. Curcumin preparations (50 mg/mL) were prepared by suspending the content of one capsule of either Curcumin 95 500 mg or Super Bio-Curcumin 400 mg in 10 mL or 8 mL volumes of water, respectively. By analogy, a suspension of 50 mg/mL olive leaf extract was prepared by suspending the content of one capsule into 10 mL water. However, for cocoa preparations, 450 mg cocoa extract/ 5 mL, aqueous suspensions of either CocoaVia® capsules or CocoaVia® unsweetened dark chocolate powder were prepared by suspending the content of one capsule or 2 g powder, respectively in water. Separate volumes (0.25 mL) of DAS suspension were orally administered to all treated animals using a gavage needle so that all rats received DAS dose of 25 mg/kg. For the purpose of comparison, rats of group I were only treated with DAS. Rats of groups II and III, curcumin groups, were first separately given an oral dose of […] of either Super Bio-Curcumin, curcumin I (rat group II) or Curcumin 95, curcumin II (rat group III). Then 30 min following curcumin administration, DAS suspension was given to the rats in a dose of 25 mg/kg. Rats of groups IV and V, the olive oil groups, were administered olive oil as follows; rats of group IV were separately given an oral dose of olive leaf extract, olive oil I, 50 mg/kg 30 min prior to DAS administration (25 mg/kg), while rats of groups V were separately given an oral dose of DAS suspended in olive oil, olive oil II (25 mg/kg). Finally, rats of groups VI and VII, cocoa groups, were initially given an oral dose of CocoaVia® capsules, cocoa I, 90 mg/kg (rat group VI), or CocoaVia® unsweetened dark chocolate, cocoa II, 90 mg/kg (rat group VII) 30 min before DAS dosing of 25 mg/kg. For each group, volumes of 0.3 mL blood samples were withdrawn from the retro-orbital sinus of each rat into heparinized tubes. Blood samples were collected at different time intervals; 0 (prior to dosing), 0.5, 1, 2, 3, 5, 6, and 24 h following DAS administration. All collected blood samples were centrifuged immediately at 4,500 rpm (30 min, 4°C).

[2] = Stability of DAS in rat plasma QC samples; type: in vitro ADME
Method: QC samples spiked at two concentration levels of DAS, low (3 ng/mL) and high (450 ng/mL), were analyzed (n = 6) in order to assess the drug stability in plasma. Stability testing were performed by exposing the QC plasma samples to different conditions, namely auto-sampler stability (extracted samples left in the auto-sampler at 10°C for 56 h before injection), short-term (bench-top) stability (samples left at room temperature (25 °C) for 6 h), and long-term stability (samples left at -30°C for 30 days). Moreover, freeze-thaw stability was assessed as follows, plasma samples were frozen at around -30°C and then thawed at room temperature for three cycles. For each sample, DAS concentrations were related to the nominal concentrations to calculate the % recovery.

[3] = Stability of DAS solutions; type: physicochemical
[4] = Stability of DAS in rat plasma QC samples; type: in vitro ADME; settings: DAS solutions, 4°C, n = 6, read-out: Mean recovery (%) ±RSD, refrigerator stability
[5] = design: method as in PMID 28640225; settings: rats; cited from earlier work
[6] = male, Wistar, rat, DAS in plasma, n = 5, mean±SD

CL ([1]; DAS, n = 5, mean±SD): 153 ± 66.8 mL/min/kg
Vd ([1]; DAS, n = 5, mean±SD): 238.12 ± 44.22 L/kg
AUC(0-inf) [1, 6]: 2660 ± 596 ng·h/mL
AUC(0-t) [1, 6]: 1640 ± 681 ng·h/mL
Tmax [1, 6]: 0.51 ± 0.08 h
Cmax ([1]; male, Wistar, rat, DAS in plasma, n = 5, mean±SD, nutraceutical given orally 30 min before DAS (olive oil II: DAS suspended in it)): 230 ± 31 ng/mL
MRT last ([1]; male, Wistar, rat, DAS in plasma, n = 5, mean±SD, read-out: MRT0-t): 8.6 ± 0.88 h
MRT inf ([1]; male, Wistar, rat, DAS in plasma, n = 5, mean±SD, read-out: MRT0-∞): 24.4 ± 4.29 h
half-life ([1]; male, Wistar, rat, DAS in plasma, n = 5, mean±SD, read-out: t½ (converted)): 17.9 ± 2.15 h
concentration at 0 h ([1]; male, Wistar, rat, plasma, time 0 h (prior to dosing), read-out: Conc*10 (ng/mL plasma), average DAS plasma concentration): 28.6 ng/mL
concentration at 0.5 h ([1]; male, Wistar, rat, plasma, time 0.5 h, read-out: Conc*10 (ng/mL plasma), average DAS plasma concentration): 236 ng/mL
concentration at 1 h ([1]; male, Wistar, rat, plasma, time 1 h, read-out: Conc*10 (ng/mL plasma), average DAS plasma concentration): 153 ng/mL
concentration at 2 h ([1]; male, Wistar, rat, plasma, time 2 h, read-out: Conc*10 (ng/mL plasma), average DAS plasma concentration): 117 ng/mL
concentration at 3 h ([1]; male, Wistar, rat, plasma, time 3 h, read-out: Conc*10 (ng/mL plasma), average DAS plasma concentration): 99.7 ng/mL
concentration at 5 h ([1]; male, Wistar, rat, plasma, time 5 h, read-out: Conc*10 (ng/mL plasma), average DAS plasma concentration): 79.1 ng/mL
concentration at 6 h ([1]; male, Wistar, rat, plasma, time 6 h, read-out: Conc*10 (ng/mL plasma), average DAS plasma concentration): 69.6 ng/mL
concentration at 24 h ([1]; male, Wistar, rat, plasma, time 24 h, read-out: Conc*10 (ng/mL plasma), average DAS plasma concentration): 39.8 ng/mL
recovery at 56 h, 3 ng/mL ([2]; extracted rat plasma QC samples, 10°C, 56 h, extracted samples, 3 ng/mL in rat plasma, n = 6, read-out: Mean recovery (%) ±RSD, auto-sampler stability): 97.3%
recovery at 56 h, 450 ng/mL ([2]; extracted rat plasma QC samples, 10°C, 56 h, extracted samples, 450 ng/mL in rat plasma, n = 6, read-out: Mean recovery (%) ±RSD, auto-sampler stability): 98.5%
recovery at 6 h, 3 ng/mL ([2]; rat plasma QC samples, 25°C, 6 h, 3 ng/mL in rat plasma, n = 6, read-out: Mean recovery (%) ±RSD, short-term stability): 96.1%
recovery at 6 h, 450 ng/mL ([2]; rat plasma QC samples, 25°C, 6 h, 450 ng/mL in rat plasma, n = 6, read-out: Mean recovery (%) ±RSD, short-term stability): 97.2%
recovery at 3 freeze-thaw cycles, 3 ng/mL ([2]; rat plasma QC samples, -30°C, 3 cycles, 3 ng/mL in rat plasma, n = 6, read-out: Mean recovery (%) ±RSD, freeze-thaw stability): 101%
recovery at 3 freeze-thaw cycles, 450 ng/mL ([2]; rat plasma QC samples, -30°C, 3 cycles, 450 ng/mL in rat plasma, n = 6, read-out: Mean recovery (%) ±RSD, freeze-thaw stability): 99.5%
recovery at 30 days, 3 ng/mL ([2]; rat plasma QC samples, -30°C, 30 days, 3 ng/mL in rat plasma, n = 6, read-out: Mean recovery (%) ±RSD, long-term stability): 97.9%
recovery at 30 days, 450 ng/mL ([2]; rat plasma QC samples, -30°C, 30 days, 450 ng/mL in rat plasma, n = 6, read-out: Mean recovery (%) ±RSD, long-term stability): 97.3%
recovery ([2]; rat, rat plasma QC samples, all handling and storage conditions of Table 6, 3 and 450 ng/mL in plasma, read-out: recovery values in stability studies): ≥ 96.1%
stability of DAS solutions ([3]; room temperature for 6 h): stable
stability of DAS solutions ([3]; up to 3 months at the refrigerator (4°C)): stable
recovery at 3 months, 3 ng/mL ([4]; 3 ng/mL): 99.9%
recovery at 3 months, 450 ng/mL ([4]; 450 ng/mL): 98.1%
Structure (SMILES): Cc1nc(Nc2ncc(C(=O)Nc3c(C)cccc3Cl)s2)cc(N2CCN(CCO)CC2)n1 [DAS, Dasatinib]

Structure (SMILES): CC(=O)N1CCN(c2ccc(OCC3COC(Cn4ccnc4)(c4ccc(Cl)cc4Cl)O3)cc2)CC1 (stereo not shown) [ketoconazole]
effect of co-administration on the PK of sorafenib [5]: did not cause a significant effect
